{
  "source": "patent US20260159497A1",
  "about": "“SOLID FORMS OF A COMPLEMENT FACTOR B INHIBITOR” (Novartis Pharma AG, priority 2022, published 2026)",
  "key": {"[1]": {"assay": "Stability of Forms A and B under stress conditions (temperature/humidity, capsules, light)"}, "[2]": {"assay": "Grinding and wet granulation", "assay_type": "physicochemical", "excerpt": "Method: Granulate was obtained in solid-state forms. […] Dry the wet-cake under vacuum or at atmospheric pressure. Evaluate solid form and degree of crystallinity by e.g. XRPD and/or DSC."}, "[3]": {"assay": "Solubility in water and biorelevant buffers at 25° C.", "assay_type": "physicochemical", "conditions": "for XRPD of residual solid after solubility test / pH of solubility sample (pH) / solubility at 24 h: 25° C., 24 h; for solubility at 24 h: thermodynamic from solid, read-out: Solubility (mg/mL) S", "description": "Purchase sodium taurocholate (NaTC) from supplier. Account for assay. Add amount corresponding to 3 mM to PBS V1. Stir until dissolved. Equilibrate 1 h at 25° C. or 37° C. before use. Dispose after 48 h.\nPurchase FaSSIF-V2 from supplier (biorelevant.com). Amount added to PBS-V1 according to Table 1. Stir until dissolved. Equilibrate 1 h at 25° C. or 37° C. before use. Dispose after 48 h.\nPurchase FeSSIF-V2 from supplier (biorelevant.com). Amount added to PBS-V1 according to Table 1. Stir until dissolved. Equilibrate 1 h at 25° C. or 37° C. before use. Dispose after 48 h."}, "[4]": {"assay": "Intrinsic dissolution rate", "assay_type": "physicochemical"}, "[5]": {"assay": "Compression stability (XRPD after compression)", "assay_type": "physicochemical", "conditions": "4 tons of compression for 5 min", "excerpt": "Method: […] Afterwards, characterize the sample by XRPD to detect any change in the solid state."}, "[6]": {"assay": "Dynamic vapor sorption (DVS) mass change", "assay_type": "physicochemical", "conditions": "for Mass change by DVS, Desorption (%) / Mass change by DVS, Sorption (%): Table 5, 25 degree C., based on dry weight", "excerpt": "[table] The mass change by DVS isotherm (2 cycles 40-0-95-0-40% RH) are in the tables below. The mass change is based on the dry weight of each."}, "[7]": {"conditions": "pH 2.0, 0.01 M HCl, 37° C., 100 rpm, 120 min"}, "[8]": {"conditions": "pH 6.5, phosphate buffer 50 mM (PBS-V1), 37° C., 100 rpm, 120 min"}, "[9]": {"conditions": "Table 6, DVS at 25 degree C., 0% RH"}, "[10]": {"conditions": "Table 6, DVS at 25 degree C., 10% RH"}},
  "note": "Read-outs that look alike come from different tables or passages of the source.",
  "data": [
    {"compound": "COc1cc(C)c2[nH]ccc2c1CN1CCC2(C[C@H]1c1ccc(C(=O)O)cc1)CC(F)(F)C2.Cc1ccc(S(=O)(=O)O)cc1", "note": "[Form B, (S)-4-(2,2-difluoro-7-((5-methoxy-7-methyl-1H-indol-4-yl)methyl)-7-azaspiro[3.5]nonan-6-yl)benzoic acid p-toluene sulfonate]", "values": [
      {"measurement": "stability in HPMC and HGC capsules", "setting": "[1]; 50° C. with 11% and 75% RH for 2 weeks", "value": "chemically and physically stable"},
      {"measurement": "degradation under light stress", "setting": "[1]; 1200 kLux light stress", "value": "about 0.2%"},
      {"measurement": "discoloration under light stress", "setting": "[1]; 1200 kLux light stress", "value": "slight discoloration"},
      {"measurement": "form change by XRPD after humidity exposure", "setting": "[1]; exposed to 80% or 92% RH for 24 hrs", "value": "no change"},
      {"measurement": "chemical stability in bulk state", "setting": "[1]; stored at 50° C. with 11% RH or 75% RH for 1 week", "value": "chemically stable"},
      {"measurement": "degradation in bulk state", "setting": "[1]; stored at 80° C. with 75% RH", "value": "about 0.1%"},
      {"measurement": "discoloration in bulk state", "setting": "[1]; stored at 80° C. with 75% RH", "value": "slight discoloration"},
      {"measurement": "chemical stability in bulk state", "setting": "[1]; stored at 80° C./11% RH for 1 week", "value": "chemically stable"},
      {"measurement": "polymorphic form in the stress conditions", "setting": "[1]; temperature/humidity and light stress conditions", "value": "no change"},
      {"measurement": "crystallinity from XRPD pattern after grinding", "setting": "[2]; after grinding", "value": "crystallinity decrease"},
      {"measurement": "form change after grinding and wet granulation", "setting": "[2]; dry grinding (2 min and 5 min) and wet granulation (water and ethanol)", "value": "did not lead to any form change"},
      {"measurement": "XRPD of residual solid after solubility test", "setting": "[3]; FaSSGF, pH 1.6", "value": "No change"},
      {"measurement": "pH of solubility sample (pH)", "setting": "[3]; FaSSGF, pH 1.6", "value": 1.77},
      {"measurement": "pH of solubility sample (pH)", "setting": "[3]; PBS-V1 + 3 mM NaTC, pH 6.5", "value": 6.42},
      {"measurement": "XRPD of residual solid after solubility test", "setting": "[3]; PBS-V1 + 0.3 FeSSIF-V2, pH 6.5", "value": "Form A"},
      {"measurement": "pH of solubility sample (pH)", "setting": "[3]; PBS-V1 + 0.3 FeSSIF-V2, pH 6.5", "value": 6.12},
      {"measurement": "XRPD of residual solid after solubility test", "setting": "[3]; PBS-V1 + 2.0 FeSSIF-V2, pH 6.5", "value": "Form A"},
      {"measurement": "pH of solubility sample (pH)", "setting": "[3]; PBS-V1 + 2.0 FeSSIF-V2, pH 6.5", "value": 6.19},
      {"measurement": "pH of solubility sample (pH)", "setting": "[3]; PBS-V1 + FaSSIF-V2, pH 6.5", "value": 6.35},
      {"measurement": "XRPD of residual solid after solubility test", "setting": "[3]; PBS-V1 + FeSSIF-V2, pH 6.5", "value": "Form A"},
      {"measurement": "pH of solubility sample (pH)", "setting": "[3]; PBS-V1 + FeSSIF-V2, pH 6.5", "value": 6.40},
      {"measurement": "solubility at 24 h", "setting": "[3]; fassgf or other biorelevant, FaSSGF, pH 1.6", "value": 0.49, "unit": "mg/mL"},
      {"measurement": "solubility at 24 h", "setting": "[3]; fassgf or other biorelevant, PBS-V1 + 3 mM NaTC, pH 6.5", "value": "> 2", "unit": "mg/mL"},
      {"measurement": "solubility at 24 h", "setting": "[3]; fassgf or other biorelevant, PBS-V1 + 0.3 FeSSIF-V2, pH 6.5", "value": 0.1, "unit": "mg/mL"},
      {"measurement": "solubility at 24 h", "setting": "[3]; fassgf or other biorelevant, PBS-V1 + 2.0 FeSSIF-V2, pH 6.5", "value": 0.31, "unit": "mg/mL"},
      {"measurement": "solubility at 24 h", "setting": "[3]; PBS-V1 + FaSSIF-V2, pH 6.5", "value": "> 2", "unit": "mg/mL"},
      {"measurement": "solubility at 24 h", "setting": "[3]; PBS-V1 + FeSSIF-V2, pH 6.5", "value": 0.2, "unit": "mg/mL"},
      {"measurement": "solubility at 24 h", "setting": "[3]; water", "value": 0.39, "unit": "mg/mL"},
      {"measurement": "solubility at 24 h compared with Form A", "setting": "[3]; water and biorelevant buffers at 25° C., all media", "value": "significantly increased solubility"},
      {"measurement": "pH of solubility sample (pH)", "setting": "[3]; water", "value": 3.89},
      {"measurement": "intrinsic dissolution rate", "setting": "[4]; PBS-V1 (pH 6.5)", "value": 0.18, "unit": "mg/min/cm^2"},
      {"measurement": "intrinsic dissolution rate", "setting": "[4]; pH 2.0, 0.01 M HCl", "value": 0.015, "unit": "mg/min/cm^2"},
      {"measurement": "form change after intrinsic dissolution", "setting": "[4]; [7]", "value": "(No form change)"},
      {"measurement": "intrinsic dissolution rate", "setting": "[4]; [7]", "value": 0.015, "unit": "mg · min^−1 · cm^−2"},
      {"measurement": "form change after intrinsic dissolution", "setting": "[4]; [8]", "value": "(No form change"},
      {"measurement": "intrinsic dissolution rate", "setting": "[4]; [8]", "value": 0.18, "unit": "mg · min^−1 · cm^−2"},
      {"measurement": "form change in XRPD after compression", "setting": "[5]", "value": "no form change"},
      {"measurement": "water sorption and desorption behavior", "setting": "[6]", "value": "reversible water sorption and desorption behavior with no hysteresis"},
      {"measurement": "maximum water uptake in DVS", "setting": "[6]; 95% RH at 25° C.", "value": 2.67, "unit": "%"},
      {"measurement": "moisture absorbed by DVS (absorbs up to)", "setting": "[6]; 95% RH at 25° C.", "value": "up to 2.7%"},
      {"measurement": "Mass change by DVS, Desorption (%)", "setting": "[6]; 0% RH", "value": 0.00, "unit": "%"},
      {"measurement": "Mass change by DVS, Sorption (%)", "setting": "[6]; 0% RH", "value": 0.00, "unit": "%"},
      {"measurement": "Mass change by DVS, Desorption (%)", "setting": "[6]; 10% RH", "value": 1.11, "unit": "%"},
      {"measurement": "Mass change by DVS, Sorption (%)", "setting": "[6]; 10% RH", "value": 1.08, "unit": "%"},
      {"measurement": "Mass change by DVS, Desorption (%)", "setting": "[6]; 20% RH", "value": 1.66, "unit": "%"},
      {"measurement": "Mass change by DVS, Sorption (%)", "setting": "[6]; 20% RH", "value": 1.64, "unit": "%"},
      {"measurement": "Mass change by DVS, Desorption (%)", "setting": "[6]; 30% RH", "value": 1.93, "unit": "%"},
      {"measurement": "Mass change by DVS, Sorption (%)", "setting": "[6]; 30% RH", "value": 1.92, "unit": "%"},
      {"measurement": "Mass change by DVS, Desorption (%)", "setting": "[6]; 40% RH", "value": 2.10, "unit": "%"},
      {"measurement": "Mass change by DVS, Sorption (%)", "setting": "[6]; 40% RH", "value": 2.09, "unit": "%"},
      {"measurement": "Mass change by DVS, Desorption (%)", "setting": "[6]; 50% RH", "value": 2.22, "unit": "%"},
      {"measurement": "Mass change by DVS, Sorption (%)", "setting": "[6]; 50% RH", "value": 2.21, "unit": "%"},
      {"measurement": "Mass change by DVS, Desorption (%)", "setting": "[6]; 60% RH", "value": 2.32, "unit": "%"},
      {"measurement": "Mass change by DVS, Sorption (%)", "setting": "[6]; 60% RH", "value": 2.31, "unit": "%"},
      {"measurement": "Mass change by DVS, Desorption (%)", "setting": "[6]; 70% RH", "value": 2.39, "unit": "%"},
      {"measurement": "Mass change by DVS, Sorption (%)", "setting": "[6]; 70% RH", "value": 2.38, "unit": "%"},
      {"measurement": "Mass change by DVS, Desorption (%)", "setting": "[6]; 80% RH", "value": 2.46, "unit": "%"},
      {"measurement": "Mass change by DVS, Sorption (%)", "setting": "[6]; 80% RH", "value": 2.45, "unit": "%"},
      {"measurement": "Mass change by DVS, Desorption (%)", "setting": "[6]; 90% RH", "value": 2.54, "unit": "%"},
      {"measurement": "Mass change by DVS, Sorption (%)", "setting": "[6]; 90% RH", "value": 2.54, "unit": "%"},
      {"measurement": "Mass change by DVS, Desorption (%)", "setting": "[6]; 95% RH", "value": 2.62, "unit": "%"},
      {"measurement": "Mass change by DVS, Sorption (%)", "setting": "[6]; 95% RH", "value": 2.62, "unit": "%"},
      {"measurement": "Mass change by DVS, 1st Desorption (%)", "setting": "[6]; [9]", "value": 0.00, "unit": "%"},
      {"measurement": "Mass change by DVS, 1st Sorption (%)", "setting": "[6]; [9]", "value": 0.00, "unit": "%"},
      {"measurement": "Mass change by DVS, 2nd Desorption (%)", "setting": "[6]; [9]", "value": "−0.01", "unit": "%"},
      {"measurement": "Mass change by DVS, 2nd Sorption (%)", "setting": "[6]; [9]", "value": "−0.01", "unit": "%"},
      {"measurement": "Mass change by DVS, 1st Desorption (%)", "setting": "[6]; [10]", "value": 1.13, "unit": "%"},
      {"measurement": "Mass change by DVS, 1st Sorption (%)", "setting": "[6]; [10]", "value": 1.11, "unit": "%"},
      {"measurement": "Mass change by DVS, 2nd Desorption (%)", "setting": "[6]; [10]", "value": 1.13, "unit": "%"}
    ]}
  ]
}
